Consider eight compounds from US20070059688A1, “Gastrointestinal chemosensory receptors” (priority 2001, published 2007).

Entries after “also recorded” stand apart in the source; their conditions may differ.

For experiment [1], the system named is STC-1 cells. Nature of the experiment: Ca2+ imaging of individual STC-1 cells (fura 2-AM) after bitter tastants. It counts as cell-based, mouse. The following applies: for [Ca2+]i response in STC-1 cells (in words): single cells, FIG. 9 concentrations: PTC 3 mM, 6-PTU 1 mM, caffeine 10 mM, nicotine 10 mM, cycloheximide 50 μM. As to the method:
The [Ca^2+]i of individual cells was measured before and after exposure to single concentrations of bitter tastants. Top panel. […] The values in parenthesis are the number of cells analyzed. Lower panels. Individual traces of [Ca^2+], from two cells exposed to denatonium benzoate or cycloheximide.
Due to heterogeneity of the STC-1 cell population, we monitored responses in the intracellular Ca^2+ concentration ([Ca^2+]i) using Ca^2+ imaging of individual cells and tested the effect of several compounds widely used in bitter taste signaling.
The concentrations of denatonium used in these experiments are similar to those used for eliciting second messenger changes and ion channel activity in taste tissues.
Since a low level of mT2R5 expression was also detected in STC-1 cells, we determined if cycloheximide stimulates a [Ca^2+]i response in these cells.

Experiment [2] concerns IEC-18 cells. Nature of the experiment: [Ca2+]i changes in IEC-18 cells. It counts as cell-based, rat. The following applies: FIG. 10B: 5 mM denatonium benzoate, vasopressin as positive control. The method, then:
(§1) (A) STC-1 cells, grown on cover slips, were washed with a buffer solution (buffer A) consisting of Hanks' balanced salt solution supplemented with 0.03% NaHCO3, 1.3 mM CaCl2, 0.5 mM MgCl2, 0.4 mM MgSO4, and 0.1% BSA. After washing, cells were incubated with […] methyl ester (fura-2/AME) from a stock of 1 mM in DMSO for 30 min at room temperature. Cells were then washed again with buffer A and left at room temperature for an additional 30 min. Each cover slip was placed in a glass cuvette with 2 ml of buffer A, and fluorescence was measured continuously in a Hitachi F-2000 fluorospectrophotometer with excitation wavelength of 340 and 380 nm and an emission wavelength of 510 nm. The bars represent the increase in [Ca^2+]i in response to various concentrations of denatonium benzoate (DB), as indicated. (B) [Ca^2+]i changes in IEC-18 cells, a normal rat intestinal epithelial cell line, after sequential addition of 5 mM denatonium benzoate (DB) followed by 50 nM vasopressin (VP), added as a positive control. (C) [Ca^2+]i changes in Swiss 3T3 cells after sequential addition of 5 mM denatonium benzoate (DB) followed by 10 nM bombesin (Bom), added as a positive control. The changes in [Ca^2+]i in IEC-18 and Swiss 3T3 cells were measured as described above for STC-1 cells.

Experiment [3] has as its target T1, chimeric mT2R5 receptors containing the NH2-terminal 39 amino acids of rhodopsin (Mus musculus, UniProt Q9JKT4).
T1 construct: host or cells: HEK-293 (heterologous expression)
T1 sequence (Q9JKT4 with tags, fused parts or gaps): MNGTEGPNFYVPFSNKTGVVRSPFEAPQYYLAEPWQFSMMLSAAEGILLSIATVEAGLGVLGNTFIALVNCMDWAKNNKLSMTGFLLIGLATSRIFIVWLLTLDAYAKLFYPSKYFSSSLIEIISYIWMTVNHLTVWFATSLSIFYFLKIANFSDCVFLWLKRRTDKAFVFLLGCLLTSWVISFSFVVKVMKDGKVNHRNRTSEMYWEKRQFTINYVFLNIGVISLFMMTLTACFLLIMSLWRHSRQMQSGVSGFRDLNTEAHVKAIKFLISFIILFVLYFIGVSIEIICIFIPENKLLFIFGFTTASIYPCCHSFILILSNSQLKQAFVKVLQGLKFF
The following applies: HEK-293 cells; Chandrashekar et al, Cell 100:703-711 (2000); cited from earlier work.

The subject of experiment [4] is STC-1 cells. The experiment can be described thus: [Ca2+]i in STC-1 cells on cover slips, fura-2 fluorospectrophotometry. The following applies: various concentrations of denatonium benzoate, FIG. 10A. It counts as cell-based, mouse. The method, then: as §1

Regarding `O=C(O)/C=C/c1ccc(O)c(O)c1` [caffeic acid], the “[Ca2+]i response in STC-1 cells (in words)” value in experiment [1] was “did not induce any detectable change”.
Turning to `C[C@@H]1C[C@@H]([C@H](O)CC2CC(=O)NC(=O)C2)C(=O)[C@@H](C)C1` [cycloheximide], the “[Ca2+]i response in STC-1 cells (in words)” value in experiment [1] is “induced oscillatory changes in [Ca^2+]i in a small sub-population of STC-1 cells; also recorded: promoted rapid [Ca^2+]i responses”. Also, the “[Ca2+]i response in IEC-18 cells (in words)” value in experiment [2] is listed as “not in other well studied cell lines such as IEC-18 or 3T3”. In experiment [3], the “mT2R5 response, increase in [Ca2+]i (in words)” value was “responds”.
For the compound `CN1CCCC1c1cccnc1` (centres unmarked) [nicotine], in experiment [1], the “[Ca2+]i response in STC-1 cells (in words)” value was “robust [Ca^2+]i responses”.
Still for that read-out and setting: as for `CN1[C@@H]2CC[C@H]1C[C@@H](OC(=O)C(CO)c1ccccc1)C2` (some centres unmarked) [atropine], the entry is “did not induce any detectable change”.
As to `NC(=S)Nc1ccccc1` [phenylthiocarbamide], in experiment [1], the “[Ca2+]i response in STC-1 cells (in words)” value was “robust [Ca^2+]i responses; also recorded: promoted rapid [Ca^2+]i responses”. Further, the “[Ca2+]i response in IEC-18 cells (in words)” value in experiment [2] was “not in other well studied cell lines such as IEC-18 or 3T3”.
On to `CC[N+](CC)(CC(=O)Nc1c(C)cccc1C)Cc1ccccc1` [denatonium benzoate], for which, in experiment [1] (1 mM, percentage of the STC-1 population), the “cells with increase in [Ca2+]i” value is 33%. Moreover, the “cells with marked increase in [Ca2+]i” value in experiment [1] (10 mM, percentage of STC-1 cells examined) is listed as 97%. In addition, the “[Ca2+]i response in STC-1 cells (in words)” value in experiment [1] is “rapid and dose-dependent elevation”; in experiment [1] (listed as denatonium), “promoted rapid [Ca^2+]i responses”. Further, in experiment [4], the “increase in [Ca2+]i in STC-1 cells (in words)” value is listed as “dose-dependent increase”. The “[Ca2+]i response in IEC-18 cells (in words)” value in experiment [2] is on record as “not in other well studied cell lines such as IEC-18 or 3T3”.
Take `CCCc1cc(=O)[nH]c(=S)[nH]1` [6-n-propil-2-thiouracil]: the “[Ca2+]i response in STC-1 cells (in words)” value in experiment [1] was “robust [Ca^2+]i responses; also recorded: promoted rapid [Ca^2+]i responses”. For the same compound, the “[Ca2+]i response in IEC-18 cells (in words)” value in experiment [2] is given as “not in other well studied cell lines such as IEC-18 or 3T3”.
Take `Cn1c(=O)c2c(ncn2C)n(C)c1=O` [caffeine]: the “[Ca2+]i response in STC-1 cells (in words)” value in experiment [1] was “robust [Ca^2+]i responses”.
